This experiment addresses T1, purified STEP46 enzyme (Homo sapiens, UniProt P54829).
T1 sequence (P54829 197-565 limits assumed): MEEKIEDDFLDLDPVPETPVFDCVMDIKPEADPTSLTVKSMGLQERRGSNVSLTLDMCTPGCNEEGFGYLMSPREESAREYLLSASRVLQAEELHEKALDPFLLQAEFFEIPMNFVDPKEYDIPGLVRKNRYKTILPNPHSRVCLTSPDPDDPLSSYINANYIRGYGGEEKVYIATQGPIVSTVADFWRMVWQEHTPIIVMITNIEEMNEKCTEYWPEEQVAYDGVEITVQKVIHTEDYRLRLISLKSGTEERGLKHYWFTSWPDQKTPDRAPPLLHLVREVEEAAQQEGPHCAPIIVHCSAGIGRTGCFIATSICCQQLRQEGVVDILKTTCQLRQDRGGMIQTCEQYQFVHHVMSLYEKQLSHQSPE
Briefly: STEP46 biochemical assay (DiFMUP fluorescence phosphatase assay). Conditions: DiFMUP 10 μM, read-out: STEP IC50. A digest of the protocol:
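Purified human STEP46 preincubated 30 min at room temperature with compounds in Hepes/DTT/Brij35 buffer (2% DMSO final), then reacted with 10 μM DiFMUP for 90 min at 27°C; fluorescence read at 360/460 nm. IC50 from four-parameter fit; activation shown as negative % inhibition at 25, 50, 100 uM.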

Molecules are shown by their SMILES.

In general, IC50 refers to the concentration that inhibits the measured activity by half. As to `CNc1nc(-c2cccnc2)nc2c(-c3cc(F)ccc3F)ccc(OC)c12` [Compound 497], the 50% inhibitory concentration (IC50) fell in the range of 1 to 10 µM.

On to `CCOc1ccc(F)c(-c2ccc3nc(-c4cccnc4)nc(NC)c3c2)c1` [Compound 201], for which the IC50 fell in the range of 1 to 10 µM.

As to `CNc1nc(-c2cccnc2)nc2c(F)c(-c3ccc(F)cc3OC)ccc12` [Compound 543], the IC50 lay in the range of 1 to 10 µM.

Take `CNc1nc(-c2cccnc2)nc2ccc(-c3nnc(C)s3)cc12` [Compound 472]: the IC50 is > 10 µM.

`CNc1nc(-c2cccnc2)nc2cc(OC(F)(F)F)c(-c3cccc(F)c3F)cc12` [Compound 404]: the IC50 was in the range of 1 to 10 µM.

Turning to `CNc1nc(-c2cccnc2)nc2c(OC)cc(-c3ccc(OC)cc3)cc12` [Compound 208], the half-maximal inhibitory concentration (IC50) was in the range of 1 to 10 µM.

Regarding `CNc1nc(-c2cccnc2)nc2cc(-c3ccccc3F)c(F)cc12` [Compound 552], the IC50 lay in the range of 1 to 10 µM.

As for `CNc1nc(-c2cccnc2)nc2c(OC)cc(-c3cccc(Cl)c3)cc12` [Compound 305], the IC50 lay within 1 to 10 µM.

Consider `CNc1nc(-c2cccnc2)nc2c(F)c(-c3ccco3)ccc12` [Compound 524], for which the IC50 lay within 1 to 10 µM.

Take `CNc1nc(-c2cccnc2)nc2c(OC)cc(-c3ccccc3OC)cc12` [Compound 207]: the IC50 lay within 1 to 10 µM.

For `CNc1nc(-c2cccnc2)nc2cc(F)c(-c3ccccc3OC)cc12` [Compound 593], the IC50 is > 10 µM.

For the compound `CNc1nc(-c2cccnc2)nc2ccc(-c3ccc4c(c3)NC(=O)CO4)cc12` [Compound 469], the IC50 was < 1 µM.

Consider `CNc1nc(-c2cccnc2)nc2ccc(-c3cccc(F)c3F)c(F)c12` [Compound 221], for which the half-maximal inhibitory concentration (IC50) was in the range of 1 to 10 µM.

As for `CNc1nc(-c2cccnc2F)nc2ccc(-c3cccc(F)c3)cc12` [Compound 214], the IC50 lay within 1 to 10 µM.

As to `Fc1ccc(-c2ccc3nc(-c4cccnc4)nc(-c4cncs4)c3c2)c(F)c1` [Compound 417], the IC50 was < 1 µM.

For `Fc1ccc(-c2ccc3c(NCCc4ccccn4)nc(-c4cccnc4)nc3c2)cc1` [Compound 340], the IC50 lay within 1 to 10 µM.

As for `Fc1ccc(-c2ccc3c(N4CCc5cc(Cl)ccc54)nc(-c4cccnc4)nc3c2)cc1` [Compound 97], the IC50 lay in the range of 1 to 10 µM.

Take `CNc1nc(-c2cccnc2)nc2ccc(-c3cccc(C(=O)Nc4nncs4)c3)cc12` [Compound 447]: the IC50 was < 1 µM.

Consider `Clc1ccc2c(c1)CCN2c1nc(-c2cccnc2)nc2cc(-c3ccncc3)ccc12` [Compound 100], for which the IC50 lay within 1 to 10 µM.

As to `CCOc1ccc2nc(-c3cccnc3)nc(Nc3ccc(C)cn3)c2c1` [Compound 56], the IC50 was 1 to 10 µM.

For `CNc1nc(-c2cccnc2C)nc2ccc(-c3cccc(F)c3)cc12` [Compound 220], the IC50 lay in the range of 1 to 10 µM.

Take `CNc1nc(-c2cccnc2)nc2cc(F)c(-c3cccc(C#N)c3)cc12` [Compound 589]: the IC50 lay within 1 to 10 µM.

Take `O=[N+]([O-])c1ccc2c(c1)CCN2c1nc(-c2cccnc2)nc2cc(-c3ccc(F)cc3F)ccc12` [Compound 104]: the IC50 is < 1 µM.

For the compound `Cc1cncc(Nc2nc(-c3cccnc3)nc3ccc(Cl)cc23)c1` [Compound 66], the IC50 fell in the range of 1 to 10 µM.

As to `CNc1nc(-c2cccnc2)nc2c(-c3cc(F)cc(OC)c3)ccc(OC)c12` [Compound 498], the IC50 lay within 1 to 10 µM.

With `COc1ccc2nc(-c3cccnc3)nc(Nc3ccc(C#N)cn3)c2c1` [Compound 46], the IC50 lay in the range of 1 to 10 µM.

As to `CNc1nc(-c2cccnc2)nc2c(F)c(-c3ccc(F)c(F)c3F)ccc12` [Compound 521], the IC50 was in the range of 1 to 10 µM.

`Fc1ccc(-c2ccc3nc(-c4cccnc4)nc(N4CCc5cccnc54)c3c2)cc1` [Compound 443]: the IC50 is 1 to 10 µM.

For the compound `CNc1nc(-c2cccnc2)nc2c(F)c(-c3cc(F)cc(F)c3F)ccc12` [Compound 523], the IC50 is < 1 µM.

Take `CNc1nc(-c2cccnc2)nc2c(F)c(-c3ccc4[nH]ncc4c3)ccc12` [Compound 535]: the IC50 was in the range of 1 to 10 µM.

Turning to `CNc1nc(-c2cccnc2)nc2c(C)c(-c3ccc(C)cc3)ccc12` [Compound 296], the IC50 is > 10 µM.

Turning to `CNc1nc(-c2cccnc2)nc2cc(-c3cccc(F)c3C)ccc12` [Compound 324], the IC50 was in the range of 1 to 10 µM.

`Clc1ccc2c(c1)CCN2c1nc(-c2cccnc2)nc2cc(-c3cncnc3)ccc12` [Compound 101]: the IC50 was < 1 µM.

Consider `Cc1ccc2c(c1)CCN2c1nc(-c2cccnc2)nc2ccc(-c3ccc(C#N)cc3)cc12` [Compound 81], for which the IC50 is 1 to 10 µM.

For the compound `CC(Nc1nc(-c2cccnc2)nc2cc(-c3ccc(F)c(F)c3)ccc12)c1ccccn1` (centres unmarked) [Compound 369], the IC50 is 1 to 10 µM.

Consider `CNc1nc(-c2cccnc2)nc2c(F)c(-c3ccoc3)ccc12` [Compound 530], for which the IC50 fell in the range of 1 to 10 µM.

Turning to `Fc1ccc(-c2ccc3c(N4CCc5ccccc54)nc(-c4cccnc4)nc3c2)c(F)c1` [Compound 103], the IC50 lay in the range of 1 to 10 µM.

As for `Fc1cc(F)cc(-c2ccc3nc(-c4ccnnc4)nc(NCc4ccccn4)c3c2)c1` [Compound 328], the IC50 was in the range of 1 to 10 µM.

In the case of `CNc1nc(-c2cccnc2)nc2cc(C)c(-c3ccc(F)c(OC)c3)cc12` [Compound 304], the 50% inhibitory concentration (IC50) is > 10 µM.

As to `CNc1nc(-c2cccnc2)nc2ccc(-c3ccc(F)cc3F)c(F)c12` [Compound 222], the IC50 lay within 1 to 10 µM.

In the case of `Cn1ccc2cc(-c3ccc4nc(-c5cccnc5)nc(NCCc5ccccn5)c4c3)ccc21` [Compound 346], the IC50 is < 1 µM.

In the case of `CNc1nc(-c2cccnc2)nc2c(-c3ccc(F)cc3F)ccc(OC)c12` [Compound 490], the IC50 lay in the range of 1 to 10 µM.

Take `CC(Nc1nc(-c2cccnc2)nc2ccc(-c3cc(F)cc(F)c3)cc12)c1ccccc1` (centres unmarked) [Compound 349]: the concentration for half-maximal inhibition (IC50) is 1 to 10 µM.

Regarding `CCc1nc2ccc(Nc3nc(-c4cccnc4)nc4ccc(OC)cc34)cc2o1` [Compound 40], the IC50 was > 10 µM.

Turning to `CNc1nc(-c2cccnc2)nc2ccc(-c3ccc(F)cc3C)cc12` [Compound 247], the IC50 lay in the range of 1 to 10 µM.

On to `CNc1nc(-c2cccnc2)nc2c(F)cc(-c3ccc(C#N)cc3)cc12` [Compound 571], for which the IC50 is 1 to 10 µM.

In the case of `CNc1nc(-c2cccnc2)nc2ccc(-c3cc(OC(F)(F)F)ccc3F)cc12` [Compound 263], the IC50 was in the range of 1 to 10 µM.

In the case of `CNC(=O)c1cc(-c2ccc3nc(-c4cccnc4)nc(NC)c3c2)ccc1F` [Compound 180], the IC50 lay in the range of 1 to 10 µM.

Turning to `CNc1nc(-c2cccnc2OC)nc2cc(-c3cc(F)ccc3F)ccc12` [Compound 158], the IC50 was in the range of 1 to 10 µM.

Turning to `CNc1nc(-c2cccnc2)nc2cc(-c3ccc(F)cc3)c(F)cc12` [Compound 553], the IC50 is 1 to 10 µM.

Take `CNc1nc(-c2cccnc2)nc2c(OC)cc(-c3ccc(F)c(F)c3)cc12` [Compound 255]: the IC50 was in the range of 1 to 10 µM.

For `CNc1nc(-c2cccnc2)nc2ccc(-c3ccc4c(c3)OCCCO4)cc12` [Compound 170], the IC50 was > 10 µM.

As to `COc1ccc2nc(-c3cccnc3)nc(Nc3ccc(F)nc3)c2c1` [Compound 35], the IC50 lay within 1 to 10 µM.

On to `CNc1nc(-c2cccnc2)nc2c(F)c(-c3ccc(C#N)cc3)ccc12` [Compound 512], for which the IC50 is < 1 µM.

Take `CNc1nc(-c2cccnc2)nc2ccc(-c3ccc4c(c3)C(=O)NCCO4)cc12` [Compound 479]: the IC50 lay within 1 to 10 µM.

With `Cc1ccc2c(c1)CCN2c1nc(-c2cccnc2)nc2cc(Br)ccc12` [Compound 16], the IC50 was in the range of 1 to 10 µM.

Values taken from patent publication US20140315886A1, “QUINAZOLINES AS THERAPEUTIC COMPOUNDS AND RELATED METHODS OF USE” (OTSUKA PHARMACEUTICAL CO., LTD., priority 2011, published 2014).
